Assay: Excipient appropriate to lyophilization 1: re-solubility immediately after lyophilization
Type: physicochemical
Conditions: KRN7000 200 µg/ml, Polysorbate 20 0.5%
Method: A variety of monosaccharides and disaccharides were used for examination of excipients of the lyophilized preparation. In this context, the active component (KRN7000) was set at the concentration of 200 µg/ml, and Polysorbate 20 which is used only in a limited amount from the viewpoint of safety was set at the concentration of 0.5% in the following examination.
First, Polysorbate 20 was dissolved in distilled water in a concentration of 0.5%, and the saccharides were dissolved in such concentrations as listed in Table 6. Next, 20 mg of the active component (KRN7000) was weighed and stirred in 100 ml of the solvents in a heated bath to 80°C for 20 minutes in order to form a solution. After cooling with running water, the mixture was filtered through a 0.22 µm filter, and transparent colorless glass vials having a volume of 5 ml were charged with a 1 ml portion of each of a variety of solutions thus obtained and subjected to lyophilization. Lyophilization was carried out under the condition of preliminary freezing at -40°C for 2 hours and drying at -20°C for 24 hours, 10°C for 12 hours, and finally at 25°C for 5 hours to give the lyophilized product. The degree of vacuum was set at 0.1 Torr or less during drying step.
After the lyophilization step, the lyophilized composition was reconstituted in 1 ml of distilled water for injection, left standing for 30 minutes, and solubility was judged when the foams generated on reconstitution disappeared.
The solubility was judged by cleaning the outside of the vial and placing it beneath the white light source in a darkroom for observation with naked eye at the position of a luminous intensity of about 5,000 lux. When the sample was clear with no precipitates, it was judged that the active component was dissolved.

Re-solubility immediately after lyophilization (Fructose 5%): + (+ not dissolved (or deposited)) | Re-solubility immediately after lyophilization (Fructose 10%): + (+ not dissolved (or deposited)) | Re-solubility immediately after lyophilization (Glucose 5%): - (- dissolved) | Re-solubility immediately after lyophilization (Glucose 10%): + (+ not dissolved (or deposited)) | Re-solubility immediately after lyophilization (Lactose 5%): + (+ not dissolved (or deposited)) | Re-solubility immediately after lyophilization (Lactose 10%): + (+ not dissolved (or deposited)) | Re-solubility immediately after lyophilization (Maltose 1.5%): + (+ not dissolved (or deposited)) | Re-solubility immediately after lyophilization (Maltose 3%): + (+ not dissolved (or deposited)) | Re-solubility immediately after lyophilization (Mannitol 5%): + (+ not dissolved (or deposited)) | Re-solubility immediately after lyophilization (Mannitol 10%): - (- dissolved) | Re-solubility immediately after lyophilization (Sorbitol 5%): + (+ not dissolved (or deposited)) | Re-solubility immediately after lyophilization (Sorbitol 10%): + (+ not dissolved (or deposited)) | Re-solubility immediately after lyophilization (Sucrose 4.8%): - (- dissolved) | Re-solubility immediately after lyophilization (Sucrose 9.6%): - (- dissolved) | Re-solubility immediately after lyophilization (Xylitol 4.3%): + (+ not dissolved (or deposited)) | Re-solubility immediately after lyophilization (Xylitol 8.6%): + (+ not dissolved (or deposited))
SMILES: CCCCCCCCCCCCCCCCCCCCCCCCCC(=O)N[C@@H](CO[C@H]1O[C@H](CO)[C@H](O)[C@H](O)[C@H]1O)[C@H](O)[C@H](O)CCCCCCCCCCCCCC [KRN7000, (2S,3S,4R)-1-(α-D-galactopyranosyloxy)-2-hexacosanoylamino-3,4-octadecanediol]
